Experimental data reported in ChEMBL document CHEMBL5223113, “Several non-salt and solid thienopyridine derivatives as oral P2Y12 receptor inhibitors with good stability” (Bioorg Med Chem Lett, 2022).

Assays:
Rattus norvegicus [1] = experiment: Anti-platelet activity against ADP-induced platelet aggregation in rat assessed as inhibition of platelet aggregation at 1 mg/kg relative to control; type: functional
Rattus norvegicus [2] = experiment: Anti-platelet activity against ADP-induced platelet aggregation in rat assessed as inhibition of platelet aggregation at 2 mg/kg relative to control; type: functional
Rattus norvegicus [3] = experiment: Anti-platelet activity against ADP-induced platelet aggregation in rat assessed as inhibition of platelet aggregation at 0.5 mg/kg relative to control; type: functional
[4] = Toxicity in beagle dog assessed as abnormality in blood and biochemical index at 2000 mg/kg oral gavage observed for 14 days; type: organism-based, Canis lupus familiaris; settings: in vivo, 336 h, time 14 day
[5] = Stability in human plasma assessed as compound remaining measured at 150 mins relative to control; type: ADME, cell-free; settings: read-out: Stability
[6] = Toxicity in rat assessed as bleeding time by tail cutting assay; settings: in vivo
[7] = Toxicity in beagle dog assessed as ALT level at 100 to 300 mg/kg/day oral gavage observed for 14 days; type: organism-based, Canis lupus familiaris; settings: in vivo, 336 h, dose 100-300 mg/kg/day, time 14 day
[8] = Stability in human plasma assessed as compound remaining measured at 30 mins relative to control; type: ADME, cell-free; settings: read-out: Stability
[9] = Toxicity in rat assessed as bleeding time by measuring ratio of ED200 to ED50 ratio by tail cutting assay; settings: in vivo
[10] = Toxicity in beagle dog assessed as mydriasis at 100 mg/kg/day oral gavage observed for 14 days; type: organism-based, Canis lupus familiaris; settings: in vivo, 336 h, time 14 day
Rattus norvegicus [11] = experiment: Inhibition of thrombosis in anteriovenous bypassed rat at 30 mg/kg relative to control; type: functional
[12] = Stability in human plasma assessed as compound remaining measured at 45 mins relative to control; type: ADME, cell-free; settings: read-out: Stability
Rattus norvegicus [13] = experiment: Inhibition of thrombosis in anteriovenous bypassed rat at 3 mg/kg relative to control; type: functional
[14] = Stability in human plasma assessed as compound remaining measured at 120 mins relative to control; type: ADME, cell-free; settings: read-out: Stability
[15] = Stability in human plasma assessed as compound remaining measured at 360 mins relative to control; type: ADME, cell-free; settings: read-out: Stability
[16] = Stability in human plasma assessed as compound remaining measured at 20 mins relative to control; type: ADME, cell-free; settings: read-out: Stability
[17] = Toxicity in beagle dog assessed as electrocardiogram at 100 to 300 mg/kg/day oral gavage observed for 14 days; type: organism-based, Canis lupus familiaris; settings: in vivo, 336 h, dose 100-300 mg/kg/day, time 14 day
[18] = Stability in human plasma assessed as compound remaining measured at 300 mins relative to control; type: ADME, cell-free; settings: read-out: Stability
[19] = Toxicity in beagle dog assessed as dilated pupil at 100 to 300 mg/kg/day oral gavage observed for 14 days; type: organism-based, Canis lupus familiaris; settings: in vivo, 336 h, dose 100-300 mg/kg/day, time 14 day
[20] = Stability in human plasma assessed as compound remaining measured at 180 mins relative to control; type: ADME, cell-free; settings: read-out: Stability
[21] = Toxicity in beagle dog assessed as death at 2000 mg/kg oral gavage observed for 14 days; type: organism-based, Canis lupus familiaris; settings: in vivo, 336 h, time 14 day
[22] = Toxicity in beagle dog assessed as decrease in platelet aggregation at 100 mg/kg/day oral gavage observed for 14 days; type: organism-based, Canis lupus familiaris; settings: in vivo, 336 h, time 14 day
[23] = Toxicity in beagle dog assessed as increase in ALP at 100 mg/kg/day oral gavage observed for 14 days; type: organism-based, Canis lupus familiaris; settings: in vivo, 336 h, time 14 day
Rattus norvegicus [24] = experiment: Inhibition of thrombosis in anteriovenous bypassed rat at 10 mg/kg relative to control; type: functional
[25] = Stability in human plasma assessed as compound remaining measured at 90 mins relative to control; type: ADME, cell-free; settings: read-out: Stability
[26] = Toxicity in beagle dog assessed as emesis at 100 mg/kg/day oral gavage observed for 14 days; type: organism-based, Canis lupus familiaris; settings: in vivo, 336 h, time 14 day
[27] = Stability in human plasma assessed as compound remaining measured at 5 mins relative to control; type: ADME, cell-free; settings: read-out: Stability
Rattus norvegicus [28] = organism: Rattus norvegicus; experiment: Inhibition of thrombosis in anteriovenous bypassed rat; type: functional
[29] = Toxicity in beagle dog assessed as ALP level at 100 to 300 mg/kg/day oral gavage observed for 14 days; type: organism-based, Canis lupus familiaris; settings: in vivo, 336 h, dose 100-300 mg/kg/day, time 14 day
[30] = Toxicity in beagle dog assessed as increase in liver weight at 100 mg/kg/day oral gavage observed for 14 days; type: organism-based, Canis lupus familiaris; settings: in vivo, 336 h, time 14 day
[31] = Stability in human plasma assessed as compound remaining measured at 60 mins relative to control; type: ADME, cell-free; settings: read-out: Stability
[32] = Toxicity in beagle dog assessed as swelling of hepatocyte at 100 mg/kg/day oral gavage observed for 14 days; type: organism-based, Canis lupus familiaris; settings: hepatocytes, 336 h, time 14 day
[33] = Toxicity in beagle dog assessed as abnormality in blood and biochemical index at 100 to 300 mg/kg/day oral gavage observed for 14 days; type: organism-based, Canis lupus familiaris; settings: in vivo, 336 h, dose 100-300 mg/kg/day, time 14 day
[34] = Stability in human plasma assessed as compound remaining measured at 240 mins relative to control; type: ADME, cell-free; settings: read-out: Stability
[35] = Toxicity in beagle dog assessed as electrocardiogram at 2000 mg/kg oral gavage observed for 14 days; type: organism-based, Canis lupus familiaris; settings: in vivo, 336 h, time 14 day
[36] = Stability in human plasma assessed as compound remaining measured at 10 mins relative to control; type: ADME, cell-free; settings: read-out: Stability
[37] = Toxicity in beagle dog assessed as vomiting at 100 to 300 mg/kg/day oral gavage observed for 14 days; type: organism-based, Canis lupus familiaris; settings: in vivo, 336 h, dose 100-300 mg/kg/day, time 14 day
Rattus norvegicus [38] = experiment: Inhibition of thrombosis in anteriovenous bypassed rat at 1 mg/kg relative to control; type: functional
Rattus norvegicus [39] = experiment: Anti-platelet activity against ADP-induced platelet aggregation in rat assessed as inhibition of platelet aggregation at 4 mg/kg relative to control; type: functional
Rattus norvegicus [40] = experiment: Anti-platelet activity against ADP-induced platelet aggregation in rat assessed as inhibition of platelet aggregation at 8 mg/kg relative to control; type: functional
Rattus norvegicus [41] = organism: Rattus norvegicus; experiment: Anti-platelet activity against ADP-induced platelet aggregation in rat assessed as inhibition of platelet aggregation; type: functional

## CCC/C=C/C(=O)Oc1cc2c(s1)CCN([C@H](C(=O)OC)c1ccccc1Cl)C2
Rattus norvegicus [1]
  inhibition in vivo at 1 mg/kg: 52.8%
Rattus norvegicus [2]
  inhibition in vivo at 2 mg/kg: 74.3%
Rattus norvegicus [3]
  inhibition in vivo at 0.5 mg/kg: 19.5%

## C/C=C/C(=O)Oc1cc2c(s1)CCN([C@H](C(=O)OC)c1ccccc1Cl)C2
[4]
  Activity: Non-Toxic
[5]
  remaining at 2.5 h: 0.588%
[6]
  ED200: 1.977 mg/kg
[7]
  Activity: Non-Toxic
Rattus norvegicus [1]
  inhibition in vivo at 1 mg/kg: 50.2%
[8]
  remaining at 0.5 h: 44.7%
[9]
  selectivity ratio: 1.97
[10]
  Activity: Toxic
Rattus norvegicus [11]
  inhibition in vivo at 30 mg/kg: 64.2%
[12]
  remaining at 0.75 h: 28%
Rattus norvegicus [13]
  inhibition in vivo at 3 mg/kg: 43.2%
[14]
  remaining at 2 h: 1.7%
[15]
  remaining at 6 h: 0%
[16]
  remaining at 20 min: 60.5%
[17]
  Activity: Non-Toxic
[18]
  remaining at 5 h: 0%
[19]
  Activity: Non-Toxic
[20]
  remaining at 3 h: 0.231%
[21]
  Activity: Non-Toxic
[22]
  Activity: Toxic
[23]
  Activity: Toxic
Rattus norvegicus [2]
  inhibition in vivo at 2 mg/kg: 77%
Rattus norvegicus [24]
  inhibition in vivo at 10 mg/kg: 56%
[25]
  remaining at 1.5 h: 5.49%
[26]
  Activity: Toxic
[27]
  remaining at 5 min: 91.7%
Rattus norvegicus [28]
  ED50: 11.8 mg/kg
[29]
  Activity: Non-Toxic
[30]
  Activity: Toxic
Rattus norvegicus [3]
  inhibition in vivo at 0.5 mg/kg: 22.4%
[31]
  remaining at 1 h: 18.3%
[32]
  Activity: Toxic
[33]
  Activity: Non-Toxic
[34]
  remaining at 4 h: 0%
[35]
  Activity: Non-Toxic
[36]
  remaining at 10 min: 82.3%
[37]
  Activity: Non-Toxic
Rattus norvegicus [38]
  inhibition in vivo at 1 mg/kg: 18.3%

## C=C/C=C/C(=O)Oc1cc2c(s1)CCN([C@H](C(=O)OC)c1ccccc1Cl)C2
Rattus norvegicus [39]
  inhibition in vivo at 4 mg/kg: 100%
Rattus norvegicus [1]
  inhibition in vivo at 1 mg/kg: 44%
Rattus norvegicus [2]
  inhibition in vivo at 2 mg/kg: 97.6%

## CC/C=C/C(=O)Oc1cc2c(s1)CCN([C@H](C(=O)OC)c1ccccc1Cl)C2
Rattus norvegicus [39]
  inhibition in vivo at 4 mg/kg: 78.4%
Rattus norvegicus [1]
  inhibition in vivo at 1 mg/kg: 38.2%
Rattus norvegicus [2]
  inhibition in vivo at 2 mg/kg: 62.9%
Rattus norvegicus [3]
  inhibition in vivo at 0.5 mg/kg: 26.2%
Rattus norvegicus [40]
  inhibition in vivo at 8 mg/kg: 100%
Rattus norvegicus [41]
  ED50: 1.23 mg/kg
